Source: PMC10687071 (The Journal of Biological Chemistry, 2023)

What was measured:
[1] = molecular target: T1, ΔPAS mutant EAG1 channels (deletion of PAS domain residues 2 to 130) (Mus musculus, UniProt Q60603); assay: TEVC recording, imipramine inhibition, ΔPAS mutant; assay type: cell-based; details: ΔPAS mutant EAG1 channel, +50 mV
T1 construct: expressed in transfected cells; host or cells: Xenopus laevis oocytes injected with cRNA
T1 sequence (Q60603 with tags, fused parts or gaps): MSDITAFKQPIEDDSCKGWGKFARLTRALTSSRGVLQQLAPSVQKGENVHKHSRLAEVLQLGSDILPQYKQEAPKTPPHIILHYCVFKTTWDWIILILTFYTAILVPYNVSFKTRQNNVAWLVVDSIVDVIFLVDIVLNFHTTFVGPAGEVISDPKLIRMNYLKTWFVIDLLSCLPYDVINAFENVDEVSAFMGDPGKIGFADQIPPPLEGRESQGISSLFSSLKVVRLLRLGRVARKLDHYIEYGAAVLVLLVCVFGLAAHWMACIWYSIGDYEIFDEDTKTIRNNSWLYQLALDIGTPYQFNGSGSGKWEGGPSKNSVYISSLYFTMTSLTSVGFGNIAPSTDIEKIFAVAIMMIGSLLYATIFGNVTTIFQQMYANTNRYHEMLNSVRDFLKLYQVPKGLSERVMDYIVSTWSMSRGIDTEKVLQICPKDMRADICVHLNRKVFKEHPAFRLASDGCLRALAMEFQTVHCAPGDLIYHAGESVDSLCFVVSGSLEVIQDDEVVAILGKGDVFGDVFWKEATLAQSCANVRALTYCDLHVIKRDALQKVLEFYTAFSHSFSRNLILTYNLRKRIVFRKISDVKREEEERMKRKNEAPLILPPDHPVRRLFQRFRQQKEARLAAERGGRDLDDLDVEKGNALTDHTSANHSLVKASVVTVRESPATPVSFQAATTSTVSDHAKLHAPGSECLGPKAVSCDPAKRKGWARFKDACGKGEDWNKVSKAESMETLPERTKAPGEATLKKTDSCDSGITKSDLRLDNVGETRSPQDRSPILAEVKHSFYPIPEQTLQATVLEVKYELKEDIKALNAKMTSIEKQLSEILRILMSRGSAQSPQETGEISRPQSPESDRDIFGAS
Text: (§1) The cDNA encoding wild-type (WT) mouse EAG1 channels in pGH19 vector was kindly provided by G. Robertson (University of Wisconsin-Madison, Madison, WI). The mutant ΔPAS EAG1 channel in pGH19 with the deletion of the PAS domain residues 2 to 130 was generated by Bio Basic Inc and verified by DNA sequencing (Genewiz). Mutant EAG1 channels with single amino acid substitutions were generated by Genewiz and verified by DNA sequencing. cRNA was transcribed using the T7 mMessage mMachine kit (Thermo Fisher Scientific). Defolliculated Xenopus laevis oocytes were purchased from Ecocyte Bioscience or Xenopus1 and injected with the cRNA using a Nanoinject II oocyte injector (Drummond).
(§2) For EAG1 current recordings, oocytes were placed into a handmade chamber containing a bath solution for the current recording. The currents were recorded using a TEVC technique with OC-725C amplifier (Warner Instruments) and pClamp11 software (Molecular Devices). The signals were digitized using Digidata 1550 (Molecular Devices). Patch pipettes were pulled from borosilicate glass and had resistances of 0.7 to 1.5 MΩ. The recording (bath) solution contained 96 mM NaCl, 4 mM KCl, 0.1 mM CaCl2, 1.8 mM MgCl2, and 5 mM HEPES, pH 7.5. The pipette solution contained 3 M KCl. […]

[2] = molecular target: T2, R84G mutant EAG1 channels (Mus musculus, UniProt Q60603, R84G); assay: TEVC recording, imipramine inhibition, R84G mutant; assay type: cell-based; details: R84G mutant EAG1 channel, +50 mV
T2 construct: expressed in transfected cells; host or cells: Xenopus laevis oocytes injected with cRNA
T2 sequence (Q60603 1-989 R84G): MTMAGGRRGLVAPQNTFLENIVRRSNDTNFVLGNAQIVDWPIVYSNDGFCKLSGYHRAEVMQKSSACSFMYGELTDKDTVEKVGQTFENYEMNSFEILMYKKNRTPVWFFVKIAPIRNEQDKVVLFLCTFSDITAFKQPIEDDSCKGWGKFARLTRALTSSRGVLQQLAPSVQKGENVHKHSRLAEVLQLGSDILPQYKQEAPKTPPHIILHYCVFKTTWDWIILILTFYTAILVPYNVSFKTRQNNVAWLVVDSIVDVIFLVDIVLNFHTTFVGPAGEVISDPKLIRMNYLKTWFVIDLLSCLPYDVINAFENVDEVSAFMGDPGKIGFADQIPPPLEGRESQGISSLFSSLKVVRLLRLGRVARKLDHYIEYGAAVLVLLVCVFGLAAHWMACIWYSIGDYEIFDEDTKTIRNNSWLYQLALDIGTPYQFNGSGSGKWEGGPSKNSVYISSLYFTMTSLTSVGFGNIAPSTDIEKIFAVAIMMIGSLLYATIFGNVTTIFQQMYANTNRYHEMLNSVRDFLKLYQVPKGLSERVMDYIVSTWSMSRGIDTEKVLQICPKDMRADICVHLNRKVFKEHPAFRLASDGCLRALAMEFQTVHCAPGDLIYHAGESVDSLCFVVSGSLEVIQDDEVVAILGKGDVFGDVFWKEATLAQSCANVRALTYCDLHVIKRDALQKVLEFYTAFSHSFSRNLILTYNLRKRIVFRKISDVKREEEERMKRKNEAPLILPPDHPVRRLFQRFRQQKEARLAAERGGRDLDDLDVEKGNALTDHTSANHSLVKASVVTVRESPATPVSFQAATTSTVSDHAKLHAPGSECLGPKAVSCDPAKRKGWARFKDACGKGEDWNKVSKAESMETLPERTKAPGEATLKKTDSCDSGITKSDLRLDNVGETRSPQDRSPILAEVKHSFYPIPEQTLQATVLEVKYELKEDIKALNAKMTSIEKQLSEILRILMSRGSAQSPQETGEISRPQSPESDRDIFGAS
Text: as §1, §2

IC50 [1]: 109 ± 12.6 µM | IC50 [2]: 92.6 ± 2.7 µM
Compound: CN(C)CCCN1c2ccccc2CCc2ccccc21 [imipramine]
